From patent publication US20140249135A1, “PIM KINASE INHIBITORS AND METHODS OF THEIR USE” (NOVARTIS AG, priority 2007, published 2014) come the findings set out here.

Type in all cases: biochemical
For one test, the target named is Pim1 kinase (Homo sapiens, UniProt P11309). Put plainly: Pim1 ATP depletion assay.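 Further: Luciferase-luciferin luminescence readout of residual ATP after PIM1 transfers phosphate to a peptide substrate, 40 µM ATP added, reaction run to roughly half ATP consumption.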 Conditions: Pim1 ATP depletion assay; read-out: IC50 (μM) PIM1.
A further test deals with Pim2 kinase (Homo sapiens, UniProt Q9P1W9). Put plainly: Pim2 ATP depletion assay.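 Further: Luciferase-based luminescent readout of ATP remaining after PIM2 phosphorylates a BAD peptide, final 5 nM enzyme, 4 µM ATP, 10 µM peptide, 2.5% DMSO, run to roughly half ATP consumption.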 Conditions: read-out: IC50 (μM) PIM2.
For a further test, the target named is Pim3 kinase (Homo sapiens, UniProt Q86V86). Description: Pim3 ATP depletion assay. The following applies: read-out: IC50 (μM) PIM3.

Sequence of Pim1 kinase (P11309 whole entry): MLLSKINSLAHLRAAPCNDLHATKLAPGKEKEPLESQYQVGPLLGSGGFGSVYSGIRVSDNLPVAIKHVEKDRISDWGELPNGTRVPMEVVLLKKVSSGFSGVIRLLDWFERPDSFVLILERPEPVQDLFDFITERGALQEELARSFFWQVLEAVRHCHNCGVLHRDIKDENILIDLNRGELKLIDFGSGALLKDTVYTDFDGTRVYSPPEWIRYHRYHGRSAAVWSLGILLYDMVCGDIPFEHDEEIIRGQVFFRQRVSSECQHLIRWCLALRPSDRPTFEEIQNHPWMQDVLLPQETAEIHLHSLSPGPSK
Sequence of Pim2 kinase (Q9P1W9 whole entry): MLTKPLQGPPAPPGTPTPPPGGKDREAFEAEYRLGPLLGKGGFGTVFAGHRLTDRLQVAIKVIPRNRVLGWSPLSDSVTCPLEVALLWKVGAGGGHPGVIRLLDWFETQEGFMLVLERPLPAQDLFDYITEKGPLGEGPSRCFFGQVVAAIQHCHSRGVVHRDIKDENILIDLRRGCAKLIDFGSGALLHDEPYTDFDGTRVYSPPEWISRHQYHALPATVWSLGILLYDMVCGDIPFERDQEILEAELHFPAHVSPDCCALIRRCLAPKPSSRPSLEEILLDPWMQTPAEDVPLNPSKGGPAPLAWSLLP

For `Nc1cc(-c2ccncc2NC(=O)c2nc(-c3c(F)cccc3F)ccc2N)nc(C(F)(F)F)n1` [Example 266, 3-Amino-6-(2,6-difluoro-phenyl)-pyridine-2-carboxylic acid [4-(6-amino-2-trifluoromethyl-pyrimidin-4-yl)-pyridin-3-yl]-amide], the IC50 on Pim1 kinase, at Pim2 kinase and on Pim3 kinase was under 1 µM in each case.

As to `COc1cc(-c2ccncc2NC(=O)c2nc(-c3cc(C(=O)NC(C)C)ccc3F)ccc2N)nc(N)n1` [Example 267, 3-Amino-6-(2-fluoro-5-isopropylcarbamoyl-phenyl)-pyridine-2-carboxylic acid [4-(2-amino-6-methoxy-pyrimidin-4-yl)-pyridin-3-yl]-amide], the IC50 on Pim1 kinase, at Pim2 kinase and at Pim3 kinase was under 1 µM throughout.

Consider `Cc1cc(-c2ccncc2NC(=O)c2nc(-c3ccccc3)ncc2N)cc(N)n1` [Example 269, 5-Amino-2-phenyl-pyrimidine-4-carboxylic acid (6′-amino-2′-methyl-[4,4′]bipyridinyl-3-yl)-amide], for which the IC50 on Pim1 kinase, at Pim2 kinase and on Pim3 kinase was under 1 µM in each case.

For `Nc1cnc(-c2c(F)cccc2F)nc1C(=O)Nc1cnccc1N1CCC[C@H](N)C1` [Example 270, 5-Amino-2-(2,6-difluoro-phenyl)-pyrimidine-4-carboxylic acid (3-amino-3,4,5,6-tetrahydro-2H-[1,4′]bipyridinyl-3′-yl)-amide], the IC50 on Pim1 kinase, at Pim2 kinase and at Pim3 kinase was under 1 µM throughout.

Consider `COc1nc(N)cc(-c2ccncc2NC(=O)c2nc(-c3c(F)cccc3F)ccc2N)n1` [Example 271, 3-Amino-6-(2,6-difluoro-phenyl)-pyridine-2-carboxylic acid [4-(6-amino-2-methoxy-pyrimidin-4-yl)-pyridin-3-yl]-amide], for which the IC50 on Pim1 kinase, at Pim2 kinase and on Pim3 kinase was under 1 µM in each case.

As for `Cc1nc(N)cc(-c2ccncc2NC(=O)c2nc(-c3ccccc3F)ncc2N)n1` [Example 272, 5-Amino-2-(2-fluoro-phenyl)-pyrimidine-4-carboxylic acid [4-(6-amino-2-methyl-pyrimidin-4-yl)-pyridin-3-yl]-amide], the IC50 at Pim1 kinase, at Pim2 kinase and at Pim3 kinase was under 1 µM throughout.

As to `Cc1nc(N)cc(-c2ccncc2NC(=O)c2nc(-c3cc(C(=O)NC(C)C)ccc3F)ccc2N)n1` [Example 273, 3-Amino-6-(2-fluoro-5-isopropylcarbamoyl-phenyl)-pyridine-2-carboxylic acid [4-(6-amino-2-methyl-pyrimidin-4-yl)-pyridin-3-yl]-amide], the IC50 on Pim1 kinase, at Pim2 kinase and on Pim3 kinase was under 1 µM each time.

Turning to `Cc1nc(N)cc(-c2ccncc2NC(=O)c2nc(-c3c(F)cccc3F)ccc2N)n1` [Example 274, 3-Amino-6-(2,6-difluoro-phenyl)-pyridine-2-carboxylic acid [4-(6-amino-2-methyl-pyrimidin-4-yl)-pyridin-3-yl]-amide], the IC50 on Pim1 kinase, at Pim2 kinase and on Pim3 kinase was under 1 µM in each case.

As for `Nc1ccc(-c2c(F)cccc2F)nc1C(=O)Nc1cnccc1N1CC[C@@H](F)[C@H](N)C1` [Example 277, 3-Amino-6-(2,6-difluoro-phenyl)-pyridine-2-carboxylic acid (3-amino-4-fluoro-3,4,5,6-tetrahydro-2H-[1,4′]bipyridinyl-3′-yl)-amide], the IC50 on Pim1 kinase, at Pim2 kinase and on Pim3 kinase was under 1 µM throughout.

Consider `Nc1ccc(-c2c(F)cccc2F)nc1C(=O)Nc1cnccc1N1CC(N)CC(CF)C1` (stereo not drawn) [Example 278, 3-Amino-6-(2,6-difluoro-phenyl)-pyridine-2-carboxylic acid (5-amino-3-fluoromethyl-3,4,5,6-tetrahydro-2H-[1,4′]bi-pyridinyl-3′-yl)-amide], for which the IC50 at Pim1 kinase, on Pim2 kinase and on Pim3 kinase was under 1 µM in each case.

With `Nc1ccc(C2CCCCC2)nc1C(=O)Nc1cnccc1N1CC(N)CC(C(F)(F)F)C1` (stereo not drawn) [Example 279, 3-Amino-6-cyclohexyl-pyridine-2-carboxylic acid (3-amino-5-trifluoromethyl-3,4,5,6-tetra-hydro-2H-[1,4′]bipyridinyl-3′-yl)-amide], the IC50 on Pim1 kinase, at Pim2 kinase and on Pim3 kinase was under 1 µM each time.

Turning to `NC1CC(C(F)(F)F)CN(c2ccncc2NC(=O)c2nc(-c3ccccc3F)ccc2F)C1` (stereo not drawn) [Example 280, 3-Fluoro-6-(2-fluoro-phenyl)-pyridine-2-carboxylic acid (3-amino-5-trifluoromethyl-3,4,5,6-tetrahydro-2H-[1,4′]bipyridinyl-3′-yl)-amide], the 50% inhibitory concentration (IC50) at Pim1 kinase, at Pim2 kinase and at Pim3 kinase was under 1 µM throughout.

With `NC1CC(C(F)(F)F)CN(c2ccncc2NC(=O)c2ccc(F)c(-c3ccccc3F)n2)C1` (stereo not drawn) [Example 281, 5-Fluoro-6-(2-fluoro-phenyl)-pyridine-2-carboxylic acid (3-amino-5-trifluoromethyl-3,4,5,6-tetrahydro-2H-[1,4′]bipyridinyl-3′-yl)-amide], the IC50 on Pim1 kinase, at Pim2 kinase and at Pim3 kinase was under 1 µM in each case.

In the case of `Nc1ccc(-c2c(F)cccc2F)nc1C(=O)Nc1cnccc1N1CC(N)CC(C(F)(F)F)C1` (stereo not drawn) [Example 282, 3-Amino-6-(2,6-difluoro-phenyl)-pyridine-2-carboxylic acid (3-amino-5-trifluoromethyl-3,4,5,6-tetrahydro-2H-[1,4′]bi-pyridinyl-3′-yl)-amide], the IC50 on Pim1 kinase, on Pim2 kinase and on Pim3 kinase was under 1 µM in each case.

For `CC1CC(N)CN(c2ccncc2NC(=O)c2nc(C3CCCCC3)ccc2N)C1` (stereo not drawn) [Example 283, 3-Amino-6-cyclohexyl-pyridine-2-carboxylic acid (3-amino-5-methyl-3,4,5,6-tetrahydro-2H-[1,4′]bipyridinyl-3′-yl)-amide], the IC50 on Pim1 kinase, on Pim2 kinase and at Pim3 kinase was under 1 µM each time.

For the compound `Nc1ccc(C2CCCCC2)nc1C(=O)Nc1cnccc1N1C[C@@H](N)C[C@@H](F)C1` [Example 284, 3-Amino-6-cyclohexyl-pyridine-2-carboxylic acid (3-amino-5-fluoro-3,4,5,6-tetrahydro-2H-[1,4′]bipyridinyl-3′-yl)-amide], the concentration for half-maximal inhibition (IC50) on Pim1 kinase, at Pim2 kinase and at Pim3 kinase was under 1 µM each time.

With `CO[C@@H]1C[C@H](N)CN(c2ccncc2NC(=O)c2nc(C3CCCCC3)ccc2N)C1` [Example 285, 3-Amino-6-cyclohexyl-pyridine-2-carboxylic acid (3-amino-5-methoxy-3,4,5,6-tetrahydro-2H-[1,4′]bipyridinyl-3′-yl)-amide], the IC50 at Pim1 kinase, on Pim2 kinase and at Pim3 kinase was under 1 µM throughout.

As for `CC1CC(N)CN(c2ccncc2NC(=O)c2nc(-c3ccccc3F)ccc2F)C1` (stereo not drawn) [Example 286, 3-Fluoro-6-(2-fluoro-phenyl)-pyridine-2-carboxylic acid (5-amino-3-methyl-3,4,5,6-tetra-hydro-2H-[1,4′]bipyridinyl-3′-yl)-amide], the IC50 at Pim1 kinase, on Pim2 kinase and at Pim3 kinase was under 1 µM in each case.

`CC1CC(N)CN(c2ccncc2NC(=O)c2nc(-c3c(F)cccc3F)ccc2N)C1` (stereo not drawn) [Example 288, 3-Amino-6-(2,6-difluoro-phenyl)-pyridine-2-carboxylic acid (3-amino-5-methyl-3,4,5,6-tetrahydro-2H-[1,4′]bipyridinyl-3′-yl)-amide]: the IC50 at Pim1 kinase, at Pim2 kinase and at Pim3 kinase was under 1 µM throughout.

In the case of `NC1CC(CO)CN(c2ccncc2NC(=O)c2ccc(F)c(-c3ccccc3F)n2)C1` (stereo not drawn) [Example 289, 5-Fluoro-6-(2-fluoro-phenyl)-pyridine-2-carboxylic acid (5-amino-3-hydroxymethyl-3,4,5,6-tetrahydro-2H-[1,4′]bipyridinyl-3′-yl)-amide], the IC50 on Pim1 kinase, on Pim2 kinase and on Pim3 kinase was under 1 µM in each case.

Turning to `CC(C)NC(=O)c1ccc(F)c(-c2ccc(N)c(C(=O)Nc3cnccc3N3CCCC4(CCNC4)C3)n2)c1` (stereo not drawn) [Example 291, 3-Amino-6-(2-fluoro-5-isopropylcarbamoyl-phenyl)-pyridine-2-carboxylic acid [4-(2,7-diaza-spiro[4.5]dec-7-yl)-pyridin-3-yl]-amide], the IC50 at Pim1 kinase, at Pim2 kinase and at Pim3 kinase was under 1 µM throughout.

Consider `Nc1ccc(-c2c(F)cccc2F)nc1C(=O)Nc1cnccc1N1C[C@@H](N)C[C@@H](F)C1` [Example 293, 3-Amino-6-(2,6-difluoro-phenyl)-pyridine-2-carboxylic acid (3-amino-5-fluoro-3,4,5,6-tetrahydro-2H-[1,4′]bipyridinyl-3′-yl)-amide], for which the IC50 at Pim1 kinase, on Pim2 kinase and at Pim3 kinase was under 1 µM in each case.

Take `Nc1ccc(-c2c(F)cccc2F)nc1C(=O)Nc1cnccc1N1C[C@@H](N)C[C@H](OC(=O)c2ccccc2)C1` [Example 295, Benzoic acid 5-amino-3′-{[3-amino-6-(2,6-difluoro-phenyl)-pyridine-2-carbonyl]-amino}-3,4,5,6-tetrahydro-2H-[1,4′]bi-pyridinyl-3-yl ester]: the IC50 is under 1 µM on Pim1 kinase, 1 to 10 µM on Pim2 kinase and under 1 µM on Pim3 kinase.

For the compound `CC(C)NC(=O)c1ccc(F)c(-c2ccc(N)c(C(=O)Nc3cnccc3N3C[C@@H](N)C[C@H](O)C3)n2)c1` [Example 296, 3-Amino-6-(2-fluoro-5-isopropylcarbamoyl-phenyl)-pyridine-2-carboxylic acid (3-amino-5-hydroxy-3,4,5,6-tetra-hydro-2H-[1,4′]bipyridinyl-3′-yl)-amide], the half-inhibitory concentration (IC50) at Pim1 kinase, on Pim2 kinase and at Pim3 kinase was under 1 µM in each case.
